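All cell lines were grown in 96-well plates and treated with compound for 48 hours. GI50 = concentration required for 50% inhibition of growth.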 Active and inactive are the calls of the source. Rule as the data show it: active = GI50 up to about 1.1 µM and inactive = higher.
Tests used:
Experiment in all cases: growth of human tumour cells (NCI), 48 h
[1] = test system: HCT-116
[2] = test system: HCT-15
[3] = test system: HT-29
[4] = test system: IGROV-1
[5] = test system: K562
[6] = test system: MOLT-4
[7] = test system: Malme-3M
[8] = test system: NCI-H23
[9] = test system: NCI-H522
[10] = test system: OVCAR-8
[11] = test system: SF-295
[12] = test system: SK-MEL-28
[13] = test system: SK-MEL-2
[14] = test system: SK-MEL-5
[15] = test system: SNB-19
[16] = test system: U-251
[17] = test system: RPMI-8226

For `CC(=O)OCc1cc(OC(C)=O)cnc1COC(C)=O`, the GI50 [1] was > 100 µM (inactive), the GI50 [2] was > 100 µM and the GI50 [3] was > 100 µM (inactive). The GI50 [4] was > 100 µM (inactive), the GI50 [5] was > 100 µM (inactive) and the GI50 [6] was > 100 µM (inactive). The GI50 [7] was > 100 µM (inactive), the GI50 [8] was > 100 µM (inactive) and the GI50 [9] was > 100 µM (inactive). For the same compound, the GI50 [10] was > 100 µM (inactive), the GI50 [11] was > 100 µM (inactive) and the GI50 [12] was > 100 µM (inactive). The GI50 [13] was > 100 µM (inactive), the GI50 [14] was > 100 µM (inactive) and the GI50 [15] was > 100 µM (inactive). The GI50 [16] was > 100 µM (inactive).

In the case of `COc1cc(Cl)cc(O)c(=O)c1OC`, the GI50 [1] was 35.8 µM (inactive), the GI50 [2] was 25.4 µM and the GI50 [3] was 64.3 µM (inactive). For the same compound, the GI50 [5] was 36.5 µM (inactive), the GI50 [6] was 15.8 µM (inactive) and the GI50 [7] was 54.7 µM (inactive). For the same compound, the GI50 [8] was 35.1 µM (inactive), the GI50 [9] was 21.9 µM (inactive) and the GI50 [10] was 36.9 µM (inactive). For the same compound, the GI50 [17] was 15.8 µM (inactive), the GI50 [11] was 62.4 µM (inactive) and the GI50 [12] was 92.7 µM (inactive). For the same compound, the GI50 [13] was 53.2 µM (inactive), the GI50 [15] was 56.1 µM (inactive) and the GI50 [16] was 40.1 µM (inactive).

For `CC1(C)C(=O)/C=C\C(=O)C(C)(C)C2=CC=C(O2)C(C)(C)C(=O)/C=C\C(=O)C(C)(C)C2=CC=C1O2`, the GI50 [1] was > 100 µM (inactive), the GI50 [2] was > 100 µM and the GI50 [3] was > 100 µM (inactive). For the same compound, the GI50 [4] was > 100 µM (inactive), the GI50 [5] was > 100 µM (inactive) and the GI50 [6] was > 100 µM (inactive). For the same compound, the GI50 [7] was > 100 µM (inactive), the GI50 [8] was > 100 µM (inactive) and the GI50 [9] was > 100 µM (inactive). For the same compound, the GI50 [10] was > 100 µM (inactive), the GI50 [11] was > 100 µM (inactive) and the GI50 [12] was > 100 µM (inactive). The GI50 [13] was > 100 µM (inactive), the GI50 [15] was > 100 µM (inactive) and the GI50 [16] was > 100 µM (inactive).

For `CN(C)CCNC(=O)c1ccc(C(=O)NCCN(C)C)c2nc3ccccc3cc12`, the GI50 [1] was 0.301 µM (active), the GI50 [2] was 2.96 µM and the GI50 [3] was 0.452 µM (active). For the same compound, the GI50 [4] was 1.62 µM (inactive), the GI50 [5] was 0.61 µM (active) and the GI50 [6] was 0.226 µM (active). The GI50 [7] was 1.38 µM (inactive), the GI50 [8] was 1.71 µM (inactive) and the GI50 [9] was 0.47 µM (active). The GI50 [10] was 0.571 µM (active), the GI50 [11] was 0.895 µM (active) and the GI50 [12] was 1.74 µM (inactive). The GI50 [13] was 1.28 µM (inactive), the GI50 [14] was 1.49 µM (inactive) and the GI50 [15] was 1.2 µM (inactive). The GI50 [16] was 0.533 µM (active).

`COc1ccc(/C=C/c2onc3c(=O)n(C)nc(-c4ccccc4)c23)cc1` was tested, and the GI50 [1] was > 100 µM (inactive), the GI50 [2] was > 100 µM and the GI50 [3] was 45 µM (inactive). The GI50 [4] was > 100 µM (inactive), the GI50 [5] was > 100 µM (inactive) and the GI50 [6] was > 100 µM (inactive). For the same compound, the GI50 [8] was > 100 µM (inactive), the GI50 [9] was 77.6 µM (inactive) and the GI50 [10] was > 100 µM (inactive). The GI50 [17] was > 100 µM (inactive), the GI50 [12] was > 100 µM (inactive) and the GI50 [14] was > 100 µM (inactive). The GI50 [15] was > 100 µM (inactive) and the GI50 [16] was > 100 µM (inactive).

With `Cc1ccc(NCC(=O)N2CC(=O)Nc3ccccc32)cc1` the GI50 [1] was > 100 µM (inactive), the GI50 [2] was > 100 µM and the GI50 [3] was > 100 µM (inactive). For the same compound, the GI50 [5] was > 100 µM (inactive), the GI50 [6] was > 100 µM (inactive) and the GI50 [7] was > 100 µM (inactive). For the same compound, the GI50 [8] was > 100 µM (inactive), the GI50 [9] was > 100 µM (inactive) and the GI50 [10] was > 100 µM (inactive). The GI50 [17] was > 100 µM (inactive), the GI50 [11] was > 100 µM (inactive) and the GI50 [12] was > 100 µM (inactive). For the same compound, the GI50 [13] was > 100 µM (inactive), the GI50 [14] was > 100 µM (inactive) and the GI50 [15] was > 100 µM (inactive). The GI50 [16] was > 100 µM (inactive).

In the case of `CCCNCC(=O)O[C@]1(CC)C(=O)OCc2c1cc1n(c2=O)Cc2cc3ccccc3nc2-1`, the GI50 [1] was 0.164 µM (active), the GI50 [3] was 0.274 µM (active) and the GI50 [4] was 0.325 µM (active). The GI50 [5] was 0.181 µM (active), the GI50 [6] was < 0.01 µM (active) and the GI50 [7] was 0.334 µM (active). For the same compound, the GI50 [8] was 0.0149 µM (active), the GI50 [9] was 0.0271 µM (active) and the GI50 [10] was 0.161 µM (active). For the same compound, the GI50 [17] was 0.0498 µM (active), the GI50 [11] was < 0.01 µM (active) and the GI50 [12] was 2.31 µM (inactive). The GI50 [13] was 1.13 µM (inactive), the GI50 [14] was 0.119 µM (active) and the GI50 [15] was 0.0364 µM (active). For the same compound, the GI50 [16] was < 0.01 µM (active).

With `CCCCCCCCCCCC[N+]12CC[N+](CCN)(CC1)CC2` the GI50 [1] was > 100 µM (inactive), the GI50 [3] was 67.8 µM (inactive) and the GI50 [4] was 10.8 µM (inactive). For the same compound, the GI50 [5] was 32.1 µM (inactive), the GI50 [6] was > 100 µM (inactive) and the GI50 [7] was > 100 µM (inactive). The GI50 [8] was 51.6 µM (inactive), the GI50 [9] was 86.5 µM (inactive) and the GI50 [10] was > 100 µM (inactive). The GI50 [17] was 28.2 µM (inactive), the GI50 [11] was 51.8 µM (inactive) and the GI50 [12] was > 100 µM (inactive). For the same compound, the GI50 [13] was > 100 µM (inactive), the GI50 [14] was > 100 µM (inactive) and the GI50 [15] was 20.8 µM (inactive). The GI50 [16] was 34.5 µM (inactive).

With `Cc1cc(C)nc(NS(=O)(=O)c2ccc(Nc3c4ccc(Cl)cc4nc4c(C(=O)NCCN(C)C)cccc34)cc2)n1` the GI50 [1] was > 100 µM (inactive), the GI50 [2] was > 100 µM and the GI50 [3] was > 100 µM (inactive). For the same compound, the GI50 [4] was > 100 µM (inactive), the GI50 [5] was 59.2 µM (inactive) and the GI50 [6] was > 100 µM (inactive). For the same compound, the GI50 [7] was > 100 µM (inactive), the GI50 [8] was > 100 µM (inactive) and the GI50 [9] was > 100 µM (inactive). The GI50 [10] was > 100 µM (inactive), the GI50 [17] was > 100 µM (inactive) and the GI50 [11] was > 100 µM (inactive). For the same compound, the GI50 [12] was > 100 µM (inactive), the GI50 [14] was > 100 µM (inactive) and the GI50 [15] was > 100 µM (inactive). For the same compound, the GI50 [16] was > 100 µM (inactive).

For `CCCCN(CCCC)CCCCNc1c(C)cnc2cc(Cl)ccc12`, the GI50 [1] was 11.1 µM (inactive), the GI50 [2] was 29.9 µM and the GI50 [3] was 14.9 µM (inactive). The GI50 [5] was 10.3 µM (inactive), the GI50 [6] was 25.9 µM (inactive) and the GI50 [7] was 21 µM (inactive). The GI50 [8] was 38.7 µM (inactive), the GI50 [9] was 15.2 µM (inactive) and the GI50 [10] was 49.4 µM (inactive). For the same compound, the GI50 [11] was 19.1 µM (inactive), the GI50 [12] was 17.2 µM (inactive) and the GI50 [13] was 21.2 µM (inactive). The GI50 [15] was 52.5 µM (inactive) and the GI50 [16] was 28.6 µM (inactive).

In the case of `C1=CC=C2NCCCCCCC/N=C3/C=CC=CC=C3NCCCCCCC/N=C\2C=C1`, the GI50 [1] was 39.1 µM (inactive), the GI50 [2] was > 100 µM and the GI50 [3] was 37.5 µM (inactive). For the same compound, the GI50 [4] was 10 µM (inactive), the GI50 [5] was 30.1 µM (inactive) and the GI50 [6] was 31 µM (inactive). The GI50 [7] was > 100 µM (inactive), the GI50 [8] was 11.9 µM (inactive) and the GI50 [9] was 52.5 µM (inactive). For the same compound, the GI50 [10] was 40.1 µM (inactive), the GI50 [17] was 35.9 µM (inactive) and the GI50 [11] was 47.5 µM (inactive). The GI50 [13] was > 100 µM (inactive), the GI50 [15] was > 100 µM (inactive) and the GI50 [16] was 10 µM (inactive).

With `NCCCCCS(=O)(=O)O` the GI50 [1] was > 100 µM (inactive), the GI50 [2] was > 100 µM and the GI50 [3] was > 100 µM (inactive). For the same compound, the GI50 [4] was > 100 µM (inactive), the GI50 [5] was > 100 µM (inactive) and the GI50 [6] was > 100 µM (inactive). The GI50 [7] was > 100 µM (inactive), the GI50 [8] was > 100 µM (inactive) and the GI50 [9] was > 100 µM (inactive). For the same compound, the GI50 [10] was > 100 µM (inactive), the GI50 [12] was > 100 µM (inactive) and the GI50 [13] was > 100 µM (inactive). The GI50 [14] was > 100 µM (inactive), the GI50 [15] was > 100 µM (inactive) and the GI50 [16] was > 100 µM (inactive).

With `Cn1c2ccccc2c(=O)c2c([N+](=O)[O-])ccc(NCCN)c21` the GI50 [1] was 3.73 µM (inactive), the GI50 [2] was 12.9 µM and the GI50 [3] was 4.47 µM (inactive). The GI50 [4] was 12.3 µM (inactive), the GI50 [6] was 2.06 µM (inactive) and the GI50 [7] was 14.9 µM (inactive). The GI50 [8] was 10.7 µM (inactive), the GI50 [9] was 6.92 µM (inactive) and the GI50 [10] was 7.19 µM (inactive). The GI50 [11] was 12.5 µM (inactive), the GI50 [12] was 15.3 µM (inactive) and the GI50 [13] was 15.3 µM (inactive). For the same compound, the GI50 [14] was 13.2 µM (inactive), the GI50 [15] was 14.1 µM (inactive) and the GI50 [16] was 12.8 µM (inactive).
